Structures can show the parent of a compound that is named as a salt. Where two headings read alike, the source gives them in different places.
Molecular target: PDE10 (Homo sapiens (Human), UniProt Q9Y233)
Experiment: LE_PDE10A inhibition assay (scintillation proximity assay, cAMP hydrolysis)
Format: biochemical
Conditions: SPA, 3H-cAMP substrate at Km 25 nM
Experimental: LE_PDE10A Inhibition Assay:
The PDE10 inhibition assay in 384-well plates was conducted to identify substances for the inhibition of cyclic nucleotide hydrolysis by the PDE10 enzyme. […] PDE10 activity was measured using Scintillation Proximity Assay (SPA)-based methods. PDE10 catalyses the hydrolysis of the intracellular messenger adenosine […] (cAMP) to the non-cyclic adenosine 5′-monophosphate (AMP). The SPA assay was based upon the selective interaction of the tritiated product with yttrium oxide LEADseeker beads.
The assay buffer contained 25 mM HEPES pH 7.4, 2.5 mM Magnesium Chloride and 0.1% BSA. […] The reaction was terminated by adding 6 μL of 5 mg/mL of yttrium oxide LEADseeker beads. The beads were allowed to settle for 3 hours before plates were read in the LEEDSeaker for 6 minutes. The measured signal could be converted to activity relative to an […] control (100%). IC50 values were calculated by using in-house data software and IC50 values were generated by nonlinear regression analysis. (Bristol-Myers Squibb Company, Wallingford, Conn.).

PDE10, sequence (Q9Y233 whole entry): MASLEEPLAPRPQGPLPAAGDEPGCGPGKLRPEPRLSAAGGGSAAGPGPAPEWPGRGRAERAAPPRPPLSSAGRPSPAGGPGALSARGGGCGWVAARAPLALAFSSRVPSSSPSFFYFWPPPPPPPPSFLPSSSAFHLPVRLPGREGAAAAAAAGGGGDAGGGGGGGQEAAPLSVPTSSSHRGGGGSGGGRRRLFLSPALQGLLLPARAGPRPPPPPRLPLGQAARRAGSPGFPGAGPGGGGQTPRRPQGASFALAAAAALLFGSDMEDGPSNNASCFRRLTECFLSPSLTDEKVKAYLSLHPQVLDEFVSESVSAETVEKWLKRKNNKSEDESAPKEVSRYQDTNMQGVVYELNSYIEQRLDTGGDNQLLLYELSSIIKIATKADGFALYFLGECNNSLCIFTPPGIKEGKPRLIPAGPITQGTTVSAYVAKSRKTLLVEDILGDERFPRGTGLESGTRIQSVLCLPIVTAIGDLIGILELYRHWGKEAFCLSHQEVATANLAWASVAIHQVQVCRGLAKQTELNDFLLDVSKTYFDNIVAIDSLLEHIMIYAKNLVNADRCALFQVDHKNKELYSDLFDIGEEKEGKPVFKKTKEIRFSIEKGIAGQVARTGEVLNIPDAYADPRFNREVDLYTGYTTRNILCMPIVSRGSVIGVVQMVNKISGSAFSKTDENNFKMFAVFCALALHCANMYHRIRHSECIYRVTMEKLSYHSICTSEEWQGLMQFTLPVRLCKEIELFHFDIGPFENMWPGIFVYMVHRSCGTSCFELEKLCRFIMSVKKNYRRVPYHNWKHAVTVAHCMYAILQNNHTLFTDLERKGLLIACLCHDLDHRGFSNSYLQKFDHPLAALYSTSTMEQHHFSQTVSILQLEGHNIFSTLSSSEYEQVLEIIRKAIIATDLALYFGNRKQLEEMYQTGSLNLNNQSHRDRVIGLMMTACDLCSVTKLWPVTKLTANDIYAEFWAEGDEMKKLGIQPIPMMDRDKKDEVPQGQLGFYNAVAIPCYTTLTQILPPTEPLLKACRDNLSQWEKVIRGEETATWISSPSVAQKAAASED

Row | SMILES | IC50 (read-out: PDE10 IC50 (Range)) [nM] | IC50 (read-out: PDE10 IC50) [nM]
1 | Cc1ncc(C)n2nc(-c3ccn4cc(-c5cccc(N6CC[C@H](F)C6)c5)nc4c3)nc12 [Example 28, (S)-2-(2-(3-(3-fluoropyrrolidin-1-yl)phenyl)imidazo[1,2-a]pyridin-7-yl)-5,8-dimethyl-[1,2,4]triazolo[1,5-a]pyrazine] |  | 0.16
2 | Cc1ncc(C)n2nc(-c3ccn4cc(-c5ccccn5)nc4c3)nc12 [Example 14, 5,8-dimethyl-2-(2-(pyridin-2-yl)imidazo[1,2-a]pyridin-7-yl)-[1,2,4]triazolo[1,5-a]pyrazine] |  | 0.16
3 | Cc1nccn2nc(-c3ccn4cc(-c5ccccn5)nc4c3)nc12 [Example 20, 8-methyl-2-(2-(pyridin-2-yl)imidazo[1,2-a]pyridin-7-yl)-[1,2,4]triazolo[1,5-a]pyrazine, 2 HCl] | 1 to 100 | 
4 | Cc1nccn2nc(-c3ccn4c(C)c(-c5ccccc5)nc4c3)nc12 [Example 29, 8-methyl-2-(3-methyl-2-phenylimidazo[1,2-a]pyridin-7-yl)-[1,2,4]triazolo[1,5-a]pyrazine] | 1 to 100 | 2.4
5 | Cc1nccn2nc(-c3ccn4cc(-c5cccc(Br)c5)nc4c3)nc12 [Example 23, 2-(2-(3-bromophenyl)imidazo[1,2-a]pyridin-7-yl)-8-methyl-[1,2,4]triazolo[1,5-a]pyrazine] | 1 to 100 | 
6 | Cc1ncc(C)n2nc(-c3ccn4cc(-c5cccc(C6CC6)c5)nc4c3)nc12 [Example 26, 2-(2-(3-cyclopropylphenyl)imidazo[1,2-a]pyridin-7-yl)-5,8-dimethyl-1,2,41-triazolo[1,5-a]pyrazine] |  | 0.33
7 | Cc1nccn2nc(-c3ccn4cc(-c5ccccc5)nc4c3)nc12 [Example 19, 8-methyl-2-(2-phenylimidazo[1,2-a]pyridin-7-yl)-1,2,41-triazolo[1,5-a]pyrazine, 2 HCl] | 1 to 100 | 
8 | Cc1ncc(C)n2nc(-c3cc4nc(-c5ccccc5)cn4cc3N3CCCC3)nc12 [Example 17, 5,8-dimethyl-2-(2-phenyl-6-(pyrrolidin-1-yl)imidazo[1,2-a]pyridin-7-yl)-[1,2,4]triazolo[1,5-a]pyrazine] | 1 to 100 | 3.5
9 | Cc1ncc(C)n2nc(-c3ccn4cc(-c5ccccc5)nc4c3)nc12 [Example 1, 5,8-dimethyl-2-(2-phenylimidazo[1,2-a]pyridin-7-yl)-[1,2,4]triazolo[1,5-a]pyrazine] |  | 0.1

Results, then the compound that gave them:

Row | IC50 (read-out: PDE10 IC50 (Range)) [nM] | IC50 (read-out: PDE10 IC50) [nM] | SMILES
10 | 1 to 100 |  | Cc1nccn2nc(-c3ccn4cc(-c5cccc(C6CC6)c5)nc4c3)nc12 [Example 24, 2-(2-(3-cyclopropylphenyl)imidazo[1,2-a]pyridin-7-yl)-8-methyl-[1,2,4]triazolo[1,5-a]pyrazine]
11 | 1 to 100 |  | Cc1ncc(C)n2nc(-c3ccn4cc(-c5ccc(Cl)cc5)nc4c3)nc12 [Example 6, 2-(2-(4-chlorophenyl)imidazo[1,2-a]pyridin-7-yl)-5,8-dimethyl-[1,2,4]triazolo[1,5-a]pyrazine]
12 | 1 to 100 |  | Cc1ncc(C)n2nc(-c3ccn4cc(-c5cnccn5)nc4c3)nc12 [Example 22, 5,8-dimethyl-2-(2-(pyrazin-2-yl)imidazo[1,2-a]pyridin-7-yl)-[1,2,4]triazolo[1,5-a]pyrazine]
13 | 1 to 100 |  | Cc1ncc(C)n2nc(-c3ccn4cc(-c5ccc(C#N)cc5)nc4c3)nc12 [Example 16, 4-(7-(5,8-dimethyl-[1,2,4]triazolo[1,5-a]pyrazin-2-yl)-imidazo[1,2-a]pyridin-2-yl)benzonitrile]
14 | 1 to 100 | 11 | Cc1ccc(-c2cn3ccc(-c4nc5c(C)ncc(C)n5n4)cc3n2)c(C)c1 [Example 7, 2-(2-(2,4-dimethylphenyl)imidazo[1,2-a]pyridin-7-yl)-5,8-dimethyl-[1,2,4]triazolo[1,5-a]pyrazine]
15 | 1 to 100 | 26 | Cc1ncc(C)n2nc(-c3ccn4cc(C5CC5)nc4c3)nc12 [Example 21, 2-(2-cyclopropylimidazo[1,2-a]pyridin-7-yl)-5,8-dimethyl-[1,2,4]triazolo[1,5-a]pyrazine]

From patent publication US8975276B2, “Inhibitors of PDE10” (Bristol-Myers Squibb Company, priority 2011, dated 2015)
